Experiments:
Flashpoint of materials = format: physicochemical
Procedure: In a preferred embodiment A2 of the first aspect, the solvent (B) has a flashpoint (determined according to ISO 2719:2016) of more than 130° C., preferably more than 135° C., and in particular more than 140° C.

[1] = NxPT recovery on closed storage of urea treated in the melt with urease inhibitor formulations in different solvents (Example 2); format: physicochemical; conditions: 550 ppm NxPT added to urea melt; closed storage at 30° C. and 40° C.; 2 and 6 months; HPLC DIN_EN_16651
Procedure: 900 g urea+20 mL water were added to a metal pan and heated to 135° C.+1−5° C. under continuous stirring using an overhead stirrer. When all urea was melted, the respective amount of urease inhibitor formulation was added to the urea melt to achieve an NxPT (i.e. NBPT and NPPT) concentration of 550 ppm in urea. After 1 minute of mixing, the molten urea was poured onto an aluminum tray and let cool down at room temperature for 30 min. Afterwards, the urea was broken up in pieces of 1-6 mm and stored in closed polyethylene bottles at 30° C. and 40° C. After 2 and 6 months samples were taken and analyzed for active ingredient concentration. […] The resulting NxPT concentrations from both measurements were averaged.

[2] = NxPT recovery on closed storage at 30° C. of urea coated with amine-containing formulations (Example 5); format: physicochemical
Procedure: 3 kg of urea fertilizer granules were added to an ERWEKA mixer (dimensions mix drum: 50 cm diameter, 20 cm high). The mixer was turned on (27 RPM) and the respective amount of urease inhibitor formulation (formulations of NBPT and NPPT in DEG with additional amine were prepared as shown in Table 3 below) was sprayed onto the urea using a syringe to achieve a total NxPT concentration of 550 ppm (137.5 ppm NPPT and 412.5 ppm NBPT) on urea. The fertilizer/urease inhibitor mixture was mixed for 5 minutes. Afterwards, the treated urea was stored in closed polyethylene bottles at 30° C. Samples were taken after 1, 2, 3 and 6 months and analyzed for active ingredient concentration. […] The resulting NxPT concentrations from both measurements were averaged.

[3] = granulated urea, 0.055 wt.-% NBPT+NPPT; closed storage 20° C., 30° C., 40° C., up to 12 months; compared to samples containing PEI
Procedure: In a test plant, urea was granulated in a fluidized bed granulator having a cylindrical fluidized bed of diameter 40 cm at a temperature of about 108° C. […] The fluidization air flowed at a superficial flow rate of about 2 m/s into the fluidized bed. An overflow was mounted 10 cm above the baseplate at the side wall of the bed. A defined amount (about 30 kg) of urea particles or urea granules having a narrow size distribution was then introduced into the granulator column as seeds for the granulation. The bed with the seeds (about 50 cm deep) was fluidized with hot air at a temperature of about 100° C., and the addition of 96 to 97% by weight urea solution at a temperature of about 135° C. was commenced as soon as the bed had reached the temperature of about 108° C. that was envisaged for the run. From a reservoir tank, the urea solution having a water content of 3-4% by weight was then introduced into the fluidized bed granulator at a rate of 300 kg/h via a spray nozzle that was operated at a temperature of about 140° C. with air, supplied at a rate of 240 kg/h. […]
Samples of the resulting urea granules were stored in closed polyethylene bottles at 20° C., 30° C. and 40° C. Samples were taken after 0, 1, 2, 3, 4, 6, and 12 months and analyzed for active ingredient concentration. From each sample 2×15 g was dissolved in 100 mL water and analyzed using HPLC method DIN_EN_16651. […]

SMILES | Flashpoint (Flashpoint of materials) [°C] | other results
CC(O)C(=O)N(C)C (stereo not shown) [Agnique AMD 3L, N,N-Dimethyl lactamide] | 103 | 
C[S+](C)[O-] [DMSO, Dimehtyl sulfoxide] | 95 | ranking of the stabilizing properties of the tested solvents [1]: DEG>DPG>PG>N,N-Agnique AMD 3L>DMSO
OCCOCCO [DEG, Diethylene glycol] | 142 | stabilizing properties on NxPT during storage of the treated urea, among the tested glycols [1]: best stabilizing properties

Now from value to compound, other results behind:

Flashpoint (Flashpoint of materials) [°C] | SMILES | other results
191 | CC(O)CN(CCO)CCO (stereo not shown) [DEIPA, Diethanol isopropanol amine] | performance in urease inhibitor formulations applied as coating to urea ([2]; 550 ppm NxPT sprayed onto urea granules, closed storage 30° C., 1, 2, 3 and 6 months): same performance; stabilizing effect ([2]; amine in DEG formulation of NBPT and NPPT on urea): stabilizing effect; storage stability in urea [3]: higher storage stability
99 | CC(O)CO (stereo not shown) [PG, Propylene glycol] | 

Reference: US20250276942A1, “UREASE INHIBITOR FORMULATION FOR USE IN UREA GRANULATION PROCESS” (BASF SE, priority 2021, published 2025)
